{"source": "patent US20050112573A1", "about": "“Method of detecting toxic substance” (priority 2001, published 2005)", "test_system": "yeast genes (level of expressed mRNA)", "assay": "DNA chip analysis of expressed mRNA of yeast genes after 2 h culture with a toxic chemical substance", "format": "cell-based, Saccharomyces cerevisiae S288C", "description": "Yeast (Saccharomyces cerevtisiae S288C (α SUC2mal mel gap2 CUP1)) were cultured at 25° C. on YPD medium (yeast extract 1%, polypepton 2%, glucose 2%). One of toxic chemical substances was added to the cell at logarithmic growth phase, and the cell was further cultured for two hours. Cell was cultured without any chemical substance in the same condition, and was used as control. Concentrations of the chemical substances were defined to inhibit the growth of the yeast but not lead to death.\nAfter the completion of cultivation, the culture was centrifuged to collect the cells. To the cells, sodium acetate buffer (50 mM sodium acetate, 10 mM EDTA, 1% SDS) was added, and the mixture was shaken at 65° C. for five minutes, followed by returning to room temperature, and obtaining the supernatant, which procedure was repeated two times. To the supernatant, ½ amount of a solution of phenol/chloroform was added, and the mixture was centrifuged to give a supernatant, which was added with an equal amount of chloroform, and the mixture was centrifuged to give a supernatant. To the supernatant, an equal amount of isopropanol containing 0.3 M sodium acetate was added, and the mixture was allowed to stand at room temperature for 30 minutes, after which the mixture was centrifuged to give a sediment of the whole RNAs. Seventy % ethanol was added to the sediment, and the mixture was again centrifuged to give a sediment, which was then dried and dissolved in water. mRNA was isolated from the whole RNAs as followings. In view of the fact that a poly A chain is attached to the 3′ terminus of mRNA, a polynucleotide having a poly T structure which was immobilized on the surface of latex beads was used to trap the mRNA, and then the mRNA was washed and eluted with spine column (Oligotex-dT30<Super>mRNA Purification Kit, Takara). Reverse transcription of the mRNA was conducted with a reverse transcriptase (Super Script II Reverse Transcriptase; catalogue No. 18064-014, GibcoBRL) using fluorescence-labeled nucleotides to give cDNAs that were introduced with Cy3-dUTP or Cy5-dUTP during the reverse transcription.\nThe labeled cDNAs were dissolved in TE buffer (10 mM Tris-HCl/1 mM EDTA, pH8.0), and the solution was dropped on the DNA chip containing the whole genes of yeast (DNA Chip Research Inc. Japan) so that the cDNAs were hybridized on the DNA chip at 65° C. for over 12 hours. The fluoresces intensity of the DNA chip was read with a scanner, and the ratio relative to the fluorescence intensity resulting from the absence of chemical substance was estimated as the following, which is shown in Tables 1 to 9: [formula]\nIn the Tables, “Intensity” indicated in the rightmost column is a value of the level of expressed mRNA of each gene in control cells as divided by the average level of the expressions of the whole genes."}
{"compound": "C[S+](C)[O-]", "note": "[(15), dimethylsulfoxide]", "values": [{"measurement": "The level of expressed mRNA in the presence of chemical substance/absence: YML041C", "setting": "gene YML041C", "value": 1.0}, {"measurement": "The level of expressed mRNA in the presence of chemical substance/absence: YML079W", "setting": "gene YML079W", "value": 0.3}, {"measurement": "level of expressed mRNA in the presence of chemical substance/in its absence", "setting": "gene YML110C", "value": 1.3}, {"measurement": "The level of expressed mRNA in the presence of chemical substance/absence: YML118W", "setting": "gene YML118W", "value": 2.2}, {"measurement": "The level of expressed mRNA in the presence of chemical substance/absence: YMR068W", "setting": "gene YMR068W", "value": 2.2}, {"measurement": "The level of expressed mRNA in the presence of chemical substance/absence: YMR071C", "setting": "gene YMR071C", "value": 0.8}, {"measurement": "level of expressed mRNA in the presence of chemical substance/in its absence", "setting": "gene YMR105C", "value": 0.9}, {"measurement": "The level of expressed mRNA in the presence of chemical substance/absence: YMR114C", "setting": "gene YMR114C", "value": 1.2}, {"measurement": "The level of expressed mRNA in the presence of chemical substance/absence: YMR115W", "setting": "gene YMR115W", "value": 1.2}, {"measurement": "The level of expressed mRNA in the presence of chemical substance/absence: YMR160W", "setting": "gene YMR160W", "value": 1.5}, {"measurement": "level of expressed mRNA in the presence of chemical substance/in its absence", "setting": "gene YMR189W", "value": 5.6}, {"measurement": "The level of expressed mRNA in the presence of chemical substance/absence: YMR258C", "setting": "gene YMR258C", "value": 0.6}, {"measurement": "level of expressed mRNA in the presence of chemical substance/in its absence", "setting": "gene YMR271C", "value": 0.6}, {"measurement": "level of expressed mRNA in the presence of chemical substance/in its absence", "setting": "gene YMR272C", "value": 1.1}, {"measurement": "level of expressed mRNA in the presence of chemical substance/in its absence", "setting": "gene YMR296C", "value": 6.7}, {"measurement": "level of expressed mRNA in the presence of chemical substance/in its absence", "setting": "gene YNL012W", "value": 1.6}, {"measurement": "The level of expressed mRNA in the presence of chemical substance/absence: YNL026W", "setting": "gene YNL026W", "value": 0.8}, {"measurement": "level of expressed mRNA in the presence of chemical substance/in its absence", "setting": "gene YNL037C", "value": 0.9}, {"measurement": "level of expressed mRNA in the presence of chemical substance/in its absence", "setting": "gene YNL045W", "value": 0.8}, {"measurement": "The level of expressed mRNA in the presence of chemical substance/absence: YNL058C", "setting": "gene YNL058C", "value": 2.2}, {"measurement": "The level of expressed mRNA in the presence of chemical substance/absence: YNL063W", "setting": "gene YNL063W", "value": 0.7}, {"measurement": "level of expressed mRNA in the presence of chemical substance/in its absence", "setting": "gene YNL104C", "value": 2.5}, {"measurement": "level of expressed mRNA in the presence of chemical substance/in its absence", "setting": "gene YNL106C", "value": 3.3}, {"measurement": "level of expressed mRNA in the presence of chemical substance/in its absence", "setting": "gene YNL130C", "value": 2.5}, {"measurement": "level of expressed mRNA in the presence of chemical substance/in its absence", "setting": "gene YNL169C", "value": 3.4}, {"measurement": "The level of expressed mRNA in the presence of chemical substance/absence: YNL176C", "setting": "gene YNL176C", "value": 0.8}, {"measurement": "The level of expressed mRNA in the presence of chemical substance/absence: YNL181W", "setting": "gene YNL181W", "value": 1.0}, {"measurement": "The level of expressed mRNA in the presence of chemical substance/absence: YNL191W", "setting": "gene YNL191W", "value": 1.0}, {"measurement": "The level of expressed mRNA in the presence of chemical substance/absence: YNL194C", "setting": "gene YNL194C", "value": 0.5}, {"measurement": "The level of expressed mRNA in the presence of chemical substance/absence: YNL200C", "setting": "gene YNL200C", "value": 0.8}, {"measurement": "The level of expressed mRNA in the presence of chemical substance/absence: YNL212W", "setting": "gene YNL212W", "value": 0.9}, {"measurement": "level of expressed mRNA in the presence of chemical substance/in its absence", "setting": "gene YNL231C", "value": 0.9}, {"measurement": "The level of expressed mRNA in the presence of chemical substance/absence: YNL253W", "setting": "gene YNL253W", "value": 0.5}, {"measurement": "The level of expressed mRNA in the presence of chemical substance/absence: YNL265C", "setting": "gene YNL265C", "value": 0.6}, {"measurement": "The level of expressed mRNA in the presence of chemical substance/absence: YNL276C", "setting": "gene YNL276C", "value": 0.5}, {"measurement": "level of expressed mRNA in the presence of chemical substance/in its absence", "setting": "gene YNL322C", "value": 3.7}, {"measurement": "level of expressed mRNA in the presence of chemical substance/in its absence", "setting": "gene YNR002C", "value": 1.0}, {"measurement": "level of expressed mRNA in the presence of chemical substance/in its absence", "setting": "gene YNR019W", "value": 1.6}, {"measurement": "level of expressed mRNA in the presence of chemical substance/in its absence", "setting": "gene YNR033W", "value": 1.3}, {"measurement": "The level of expressed mRNA in the presence of chemical substance/absence: YNR051C", "setting": "gene YNR051C", "value": 1.2}, {"measurement": "level of expressed mRNA in the presence of chemical substance/in its absence", "setting": "gene YNR059W", "value": 1.0}, {"measurement": "The level of expressed mRNA in the presence of chemical substance/absence: YOL026C", "setting": "gene YOL026C", "value": 0.9}, {"measurement": "The level of expressed mRNA in the presence of chemical substance/absence: YOL030W", "setting": "gene YOL030W", "value": 0.9}, {"measurement": "level of expressed mRNA in the presence of chemical substance/in its absence", "setting": "gene YOL058W", "value": 2.7}, {"measurement": "level of expressed mRNA in the presence of chemical substance/in its absence", "setting": "gene YOL126C", "value": 1.4}, {"measurement": "level of expressed mRNA in the presence of chemical substance/in its absence", "setting": "gene YOL143C", "value": 1.0}, {"measurement": "level of expressed mRNA in the presence of chemical substance/in its absence", "setting": "gene YOL153C", "value": 1.2}, {"measurement": "level of expressed mRNA in the presence of chemical substance/in its absence", "setting": "gene YOL157C", "value": 1.1}, {"measurement": "The level of expressed mRNA in the presence of chemical substance/absence: YOR022C", "setting": "gene YOR022C", "value": 0.8}, {"measurement": "The level of expressed mRNA in the presence of chemical substance/absence: YOR087W", "setting": "gene YOR087W", "value": 0.8}, {"measurement": "The level of expressed mRNA in the presence of chemical substance/absence: YOR088W", "setting": "gene YOR088W", "value": 0.8}, {"measurement": "level of expressed mRNA in the presence of chemical substance/in its absence", "setting": "gene YOR099W", "value": 1.5}, {"measurement": "level of expressed mRNA in the presence of chemical substance/in its absence", "setting": "gene YOR130C", "value": 1.0}, {"measurement": "level of expressed mRNA in the presence of chemical substance/in its absence", "setting": "gene YOR136W", "value": 1.2}, {"measurement": "The level of expressed mRNA in the presence of chemical substance/absence: YOR138C", "setting": "gene YOR138C", "value": 1.0}, {"measurement": "The level of expressed mRNA in the presence of chemical substance/absence: YOR155C", "setting": "gene YOR155C", "value": 0.9}, {"measurement": "The level of expressed mRNA in the presence of chemical substance/absence: YOR253W", "setting": "gene YOR253W", "value": 1.1}]}
